According to paper PMC11837686, “γ-Secretase modulator resistance of an aggressive Alzheimer-causing presenilin mutant can be overcome in the heterozygous patient state by a set of advanced compounds” (Alzheimer's Research & Therapy, 2025):
Several values for one entry are separate records, joined by “and”; a condition that tells them apart may be missing. Identical values can stand only once. Entries after “also recorded” stand apart in the source; their conditions may differ. Like-named read-outs stand apart in the source and are kept apart here.

Key:
[1] = molecular target: γ-secretase (Aβ42) in H4/sw cell line (Homo sapiens, UniProt P49768+P49810); test: Aβ42 AlphaLISA dose–response in H4/sw cells
Method: (§2) After three days of incubation, the medium was harvested, centrifuged and the supernatant was used for Aβ measurements by immunoassays.
(§3) To analyse GSM dose-responses and determine IC50 values for Aβ42 inhibition, secreted Aβ species of HEK293/sw cells were analysed by sandwich immunoassay (MSD) using SULFO-tagged C-terminal specific antibodies to Aβ37, Aβ38, Aβ40 and Aβ42 as described [25] or, in case of H4/sw cells by an Aβ42 AlphaLISA immunoassay kit according to the instructions of the supplier (PerkinElmer) as described [38]. Notch1 cleavage reporter assay was performed as described [38].
(§4) (A) The Aβ42-lowering effects of the GSMs used in this study were additionally characterised in dose-response curves on the H4/sw cell line, measuring Aβ42 levels after over-night incubations with an Aβ42-AlphaLisa. Effects of compounds on Notch1 processing were recorded using a Notch1 reporter assay. […] Means ± SEM of 4–7 independent experiments with 2 technical replicates each are shown. (B) IC50 values for Aβ42 calculated from the experiments in (A).

[2] = system: Notch1 cleavage; test: Notch1 cleavage reporter assay (NICD release), HEK293-based reporter cell line; conditions: dose–response
Method: as §2, §3, §4

[3] = system: PS1 and PS2 NTF and CTF; test: Photoaffinity labeling with RO6874585 and competition, HEK293 membrane fractions; assay type: binding, human; conditions: for Competition of RO6874585 crosslinking to presenilin: 100x excess of competitor
Method: (§1) Membrane fractions of HEK293 or MEF cells were incubated with RO6874585 in the presence or absence of other GSMs used as competitor compounds as described previously. In brief, after photoactivation, samples were solubilised using SDS-containing buffer and the crosslinked proteins were pulled down with streptavidin-sepharose. Thereafter, samples were analysed by immunoblotting.

[4] = molecular target: T1, PS1 L166P (Mus musculus, UniProt P49769, L166P); test: Photoaffinity labeling with RO6874585, WT or PS1 L166P KI MEF membrane fractions; assay type: binding
T1 construct: crosslinking efficiencies of PS1 NTF and PS1 CTF in WT or PS1 L166P KI MEF cell membranes; endogenous in cells; host or cells: membrane fractions of PS1 L166P knock-in MEF cells
Method: as §1

[5] = system: γ-secretase in heterozygous (WT/L166P) PS1 L166P KI MEF cells; test: Aβ species by Tris-Bicine urea SDS-PAGE/immunoblot, heterozygous PS1 L166P KI MEF cells; conditions: for Aβ40 (gel): heterozygous KI MEF (genotype not given), RO5254601 2.5 µM; for Aβ40 (gel) / Short species Aβ37 and Aβ38 (gel): RO-02 and RO7019009 500 nM, BPN-15606 360 nM
[6] = molecular target: γ-secretase in homozygous L166P/L166P iPSC-derived cortical neurons (Homo sapiens, UniProt P49768+P49810, L166P); test: Secreted Aβ species by immunoassays, homozygous PS1 L166P KI iPSC-derived neurons; conditions: 3 days
Method: (§5) Possible effects of compound treatment to cell viability were recorded using the CytoTox-Glo cell viability assay (Promega) following the instructions of the manufacturer. […] After three days of incubation, the medium was harvested, centrifuged and the supernatant was used for Aβ measurements by immunoassays.
(§6) Immunoblot analysis of secreted Aβ was performed as described [52]. To analyse GSM dose-responses and determine IC50 values for Aβ42 inhibition, secreted Aβ species of HEK293/sw cells were analysed by sandwich immunoassay (MSD) using SULFO-tagged C-terminal specific antibodies to Aβ37, Aβ38, Aβ40 and Aβ42 as described [25] or, in case of H4/sw cells by an Aβ42 AlphaLISA immunoassay kit according to the instructions of the supplier (PerkinElmer) as described [38].

[7] = molecular target: T2, γ-secretase in homozygous (L166P/L166P) PS1 L166P KI MEF cells (Mus musculus, UniProt P49769+Q61144, L166P); test: Aβ species by Tris-Bicine urea SDS-PAGE/immunoblot, homozygous PS1 L166P KI MEF cells
Method: as §5
(§7) To analyse GSM dose-responses and determine IC50 values for Aβ42 inhibition, secreted Aβ species of HEK293/sw cells were analysed by sandwich immunoassay (MSD) using SULFO-tagged C-terminal specific antibodies to Aβ37, Aβ38, Aβ40 and Aβ42 as described [25] or, in case of H4/sw cells by an Aβ42 AlphaLISA immunoassay kit according to the instructions of the supplier (PerkinElmer) as described [38]. […] GSM effects on secreted Aβ species in conditioned medium of MEF KI cells or iPSC-derived neurons were either quantified by ELISA using end-specific C-terminal antibodies to Aβ38, Aβ40, Aβ42 and Aβ43 obtained from IBL [16, 53] or MSD sandwich-immunoassay (Aβ37, see above). Total Aβ in conditioned medium of iPSC-derived neurons were measured using MSD sandwich-immunoassay using anti-Aβ antibodies 2D8 (biotinylated, capture) and 4G8 (detection) as described previously [54].

[8] = system: γ-secretase in heterozygous (WT/L166P) PS1 L166P KI MEF cells; test: Secreted Aβ species by ELISA (IBL), heterozygous PS1 L166P KI MEF cells; conditions: for Combined pathogenic species (Aβ42 + Aβ43) / Secreted Aβ43: 24 h, RO7019009 500 nM, RO5254601 2.5 µM; for Aβ38 level in treated cells, % of total Aβ: GSM-1 2.5 µM, RO-02 500 nM, one range given for both compounds and both 'other genotypes'
From the text: Immortalised embryonic fibroblast cells from mice expressing human APP and either hetero- or homozygously knocked-in PS1 L166P [36] were generated as follows. For the production of mouse embryonic fibroblasts (MEF), all mice interbred were homozygous APP YAC transgenic mice. Primary MEFs were isolated from 14 days (E14) post-conception mouse embryos from the crossing of APP YAC × PSEN1 L166P (-/-) with APP YAC × PSEN1 L166P (-/-) mice to establish WT/WT MEF lines as well as APP YAC × PSEN1 L166P ( +/-) with APP YAC × PSEN1 L166P (+ / +) mice to establish WT/L166P and L166P/L166P MEF lines. […] The tissue was then triturated 5 times with a 1 ml pipet. Trypsin was inactivated by adding 25 ml of medium (DMEM with 25 mM glucose, 10% FBS, 100 U/ml penicillin, 100 μg/ml streptomycin, 0.25 μg/ml amphotericin B, 6 mM glutamine and 1.5 mM pyruvate). The cell suspension was passed through a cell strainer and centrifuged for 15 min at 200 g. The cell pellet was resuspended in fresh media and plated. After 24 h, media was changed again to eliminate dead cells and debris. To obtain immortalised MEF lines, primary cells at passage 2–3 were transfected (FuGENE6, Promega) with a plasmid containing the SV40 T antigen cDNA. Immortalised cells were selected from individual colonies and maintained in media containing 500 μg/ml of geneticin (G418). Cells were kept at 37 °C with 5% CO2 in a humidified incubator. MEFs from passage 10 + were used for all the experiments and cultured in DMEM supplemented with 10% FCS and G418 (200 µg/ml). […] H4 cells overexpressing APPsw (H4/sw) and HEK293-based Notch1 reporter cell lines were cultured as described [38].
as §5
Immunoblot analysis of secreted Aβ was performed as described [52]. To analyse GSM dose-responses and determine IC50 values for Aβ42 inhibition, secreted Aβ species of HEK293/sw cells were analysed by sandwich immunoassay (MSD) using SULFO-tagged C-terminal specific antibodies to Aβ37, Aβ38, Aβ40 and Aβ42 as described [25] or, in case of H4/sw cells by an Aβ42 AlphaLISA immunoassay kit according to the instructions of the supplier (PerkinElmer) as described [38]. Notch1 cleavage reporter assay was performed as described [38]. GSM effects on secreted Aβ species in conditioned medium of MEF KI cells or iPSC-derived neurons were either quantified by ELISA using end-specific C-terminal antibodies to Aβ38, Aβ40, Aβ42 and Aβ43 obtained from IBL [16, 53] or MSD sandwich-immunoassay (Aβ37, see above). Total Aβ in conditioned medium of iPSC-derived neurons were measured using MSD sandwich-immunoassay using anti-Aβ antibodies 2D8 (biotinylated, capture) and 4G8 (detection) as described previously [54]. […] Protein bands from immunoblots were quantified using the LAS-4000 image reader (Fujifilm Life Science) and Multi-Gauge V3.0 software for analysis.

[9] = molecular target: T3, endogenous γ-secretase in HEK293/sw cells (Homo sapiens, UniProt P49768+P49810); test: Aβ dose–response in HEK293/sw cells, MSD sandwich immunoassay
Method: as §5, §7

[10] = system: iPSC-derived cortical neurons (total Aβ); test: Total Aβ by MSD sandwich immunoassay (2D8/4G8) in iPSC-derived neurons; conditions: WT, heterozygous and homozygous neurons, 3 days; RO7019009 500 nM or 2.5 µM, RO5254601 2.5 µM
Method: as §5, §7

[11] = molecular target: γ-secretase in WT iPSC-derived cortical neurons (Homo sapiens, UniProt P49768+P49810); test: Secreted Aβ species by immunoassays, WT iPSC-derived cortical neurons; conditions: 3 days, RO7019009 500 nM or 2.5 µM, RO5254601 2.5 µM
Method: The media was exchanged (NM/DOX) for the next two days. […] On day 6 and 9 cells were fed with NM/DOX complemented with 300 ng/ml puromycin dihydrochloride (puro, VWR, Cat. No. J593). Afterwards, the medium was switched to NM supplemented with 5 μM 5-fluorouracil (5FU, Sigma, Cat. No. F6627) with half feeds to remove the remaining dividing stem and neuron precursor cells. From day 13, cells were grown in NB (Neurobasal, penicillin–streptomycin) with B27 Plus (Thermo Fisher, Cat. No. A3582801) and 5FU. 5FU was removed in the following feeds. The cells were grown until day 24 before treatment started and analysed at day 27.
(§8) Possible effects of compound treatment to cell viability were recorded using the CytoTox-Glo cell viability assay (Promega) following the instructions of the manufacturer. […]
Immunoblot analysis of secreted Aβ was performed as described [52]. […] GSM effects on secreted Aβ species in conditioned medium of MEF KI cells or iPSC-derived neurons were either quantified by ELISA using end-specific C-terminal antibodies to Aβ38, Aβ40, Aβ42 and Aβ43 obtained from IBL [16, 53] or MSD sandwich-immunoassay (Aβ37, see above). Total Aβ in conditioned medium of iPSC-derived neurons were measured using MSD sandwich-immunoassay using anti-Aβ antibodies 2D8 (biotinylated, capture) and 4G8 (detection) as described previously [54]. […]

[12] = system: γ-secretase in heterozygous WT/L166P iPSC-derived cortical neurons; test: Secreted Aβ species by immunoassays, heterozygous PS1 L166P KI iPSC-derived neurons; conditions: 3 days, RO7019009 500 nM or 2.5 µM, RO5254601 2.5 µM
Method: as §5, §6

[13] = molecular target: T4, γ-secretase in WT (WT/WT) MEF cells (Mus musculus, UniProt P49769+Q61144); test: Aβ species by Tris-Bicine urea SDS-PAGE/immunoblot, WT/WT MEF cells; conditions: RO-02 and RO7019009 500 nM, BPN-15606 360 nM; for Aβ40 (gel): WT MEF (genotype not given), RO5254601 2.5 µM; for Short species Aβ37 and Aβ38 (gel): WT MEF
[14] = molecular target: T4, γ-secretase in WT (WT/WT) MEF cells; test: Secreted Aβ species by ELISA (IBL), WT/WT MEF cells; conditions: for Secreted Aβ38: RO7019009 500 nM
From the text: Immortalised embryonic fibroblast cells from mice expressing human APP and either hetero- or homozygously knocked-in PS1 L166P [36] were generated as follows. For the production of mouse embryonic fibroblasts (MEF), all mice interbred were homozygous APP YAC transgenic mice. Primary MEFs were isolated from 14 days (E14) post-conception mouse embryos from the crossing of APP YAC × PSEN1 L166P (-/-) with APP YAC × PSEN1 L166P (-/-) mice to establish WT/WT MEF lines as well as APP YAC × PSEN1 L166P ( +/-) with APP YAC × PSEN1 L166P (+ / +) mice to establish WT/L166P and L166P/L166P MEF lines. […] The tissue was then triturated 5 times with a 1 ml pipet. Trypsin was inactivated by adding 25 ml of medium (DMEM with 25 mM glucose, 10% FBS, 100 U/ml penicillin, 100 μg/ml streptomycin, 0.25 μg/ml amphotericin B, 6 mM glutamine and 1.5 mM pyruvate). The cell suspension was passed through a cell strainer and centrifuged for 15 min at 200 g. The cell pellet was resuspended in fresh media and plated. After 24 h, media was changed again to eliminate dead cells and debris. To obtain immortalised MEF lines, primary cells at passage 2–3 were transfected (FuGENE6, Promega) with a plasmid containing the SV40 T antigen cDNA. Immortalised cells were selected from individual colonies and maintained in media containing 500 μg/ml of geneticin (G418). Cells were kept at 37 °C with 5% CO2 in a humidified incubator. MEFs from passage 10 + were used for all the experiments and cultured in DMEM supplemented with 10% FCS and G418 (200 µg/ml). […]
as §8
Immunoblot analysis of secreted Aβ was performed as described [52]. To analyse GSM dose-responses and determine IC50 values for Aβ42 inhibition, secreted Aβ species of HEK293/sw cells were analysed by sandwich immunoassay (MSD) using SULFO-tagged C-terminal specific antibodies to Aβ37, Aβ38, Aβ40 and Aβ42 as described [25] or, in case of H4/sw cells by an Aβ42 AlphaLISA immunoassay kit according to the instructions of the supplier (PerkinElmer) as described [38]. […] GSM effects on secreted Aβ species in conditioned medium of MEF KI cells or iPSC-derived neurons were either quantified by ELISA using end-specific C-terminal antibodies to Aβ38, Aβ40, Aβ42 and Aβ43 obtained from IBL [16, 53] or MSD sandwich-immunoassay (Aβ37, see above). Total Aβ in conditioned medium of iPSC-derived neurons were measured using MSD sandwich-immunoassay using anti-Aβ antibodies 2D8 (biotinylated, capture) and 4G8 (detection) as described previously [54]. […] Protein bands from immunoblots were quantified using the LAS-4000 image reader (Fujifilm Life Science) and Multi-Gauge V3.0 software for analysis.

[15] = molecular target: T2, γ-secretase in homozygous (L166P/L166P) PS1 L166P KI MEF cells; test: Secreted Aβ species by ELISA (IBL), homozygous PS1 L166P KI MEF cells; conditions: GSM-1 2.5 µM, RO-02 500 nM, one range printed for both compounds, measurable in half of the samples
From the text: Immortalised embryonic fibroblast cells from mice expressing human APP and either hetero- or homozygously knocked-in PS1 L166P [36] were generated as follows. For the production of mouse embryonic fibroblasts (MEF), all mice interbred were homozygous APP YAC transgenic mice. Primary MEFs were isolated from 14 days (E14) post-conception mouse embryos from the crossing of APP YAC × PSEN1 L166P (-/-) with APP YAC × PSEN1 L166P (-/-) mice to establish WT/WT MEF lines as well as APP YAC × PSEN1 L166P ( +/-) with APP YAC × PSEN1 L166P (+ / +) mice to establish WT/L166P and L166P/L166P MEF lines. […] The tissue was then triturated 5 times with a 1 ml pipet. […]
as §8
Immunoblot analysis of secreted Aβ was performed as described [52]. To analyse GSM dose-responses and determine IC50 values for Aβ42 inhibition, secreted Aβ species of HEK293/sw cells were analysed by sandwich immunoassay (MSD) using SULFO-tagged C-terminal specific antibodies to Aβ37, Aβ38, Aβ40 and Aβ42 as described [25] or, in case of H4/sw cells by an Aβ42 AlphaLISA immunoassay kit according to the instructions of the supplier (PerkinElmer) as described [38]. […]

[16] = molecular target: T3, endogenous γ-secretase in HEK293/sw cells; design: endogenous γ-secretase in HEK293/sw cells; endogenous in cells; host or cells: HEK293/sw (HEK293 stably expressing APPsw); conditions: read-out: IC50 (Aβ42); cited from earlier work
[17] = system: brain-derived cell lines; design: method as in PMID 31762188; conditions: read-out: IC50 (Aβ42); cited from earlier work
[18] = read-out: Aβ42 IC50 [nM ± SD], H4/sw cells, over-night incubation, Aβ42-AlphaLisa, 4–7 independent experiments

C[C@H](NC(=O)Cc1cc(F)cc(F)c1)C(=O)N[C@@H]1C(=O)N(C)c2ccccc2-c2ccccc21 [DBZ, dibenzazepine, reference compound]
IC50 [1, 18]: 0.33 ± 0.01 nM
Notch1 cleavage / NICD release [2]: reduced the levels of the Notch1 intracellular domain

O=C(CCCC[C@@H]1SC[C@@H]2NC(=O)N[C@@H]21)NCCOCCOCCOCCNC(=O)COc1ccc(C(=O)c2ccc(OCC(=O)N3CC[C@@H](Oc4ccc5[nH]c(C(=O)Nc6ccc(F)c(F)c6)cc5c4)C3)cc2)cc1 [RO6874585]
Aβ42 lowering ([1]; H4/sw cells): lowering Aβ42
IC50 [1, 18]: 128 ± 44.7 nM
Notch1 cleavage / NICD release [2]: without inhibiting Notch1 processing
Proteins labeled by photoaffinity probe ([3]; UV crosslinking, streptavidin pull-down, immunoblot): PS1 and PS2 NTF and CTF as specific targets
Photoaffinity labeling of PS1 L166P versus WT [4]: without apparent differences to the WT

CC(=O)N1CCCC(c2ccc3[nH]c(C(=O)Nc4cc(F)cc(F)c4)cc3c2)C1 (stereo not drawn) [RO5254601]
Aβ40 (gel) [5]: little effect on Aβ40
Long species (Aβ42 + Aβ43), overall fraction / sum ([6]; RO5254601 2.5 µM): not reduced; also recorded: barely reduced the sum of long Aβ42 and Aβ43 species
IC50 [1]: 63.3 ± 24.1 nM
Notch1 cleavage / NICD release [2]: did not impair Notch1 cleavage
Competition of RO6874585 crosslinking to presenilin [3]: competed with presenilin binding of RO6874585
Aβ42 (gel) ([7]; RO5254601 2.5 µM): markedly lowering Aβ42
Combined pathogenic species (Aβ42 + Aβ43) [8]: lower the ratio of combined pathogenic species
Secreted Aβ43 [8]: could not lower Aβ43
Aβ37 production ([9]; dose–response): increased Aβ37
Aβ38 production ([9]; dose–response): increased the production of Aβ38
Aβ40 production ([9]; dose–response): largely unaffected
Total Aβ levels [10]: without affecting total Aβ levels
Effect on Aβ species profile [11]: primarily acted on Aβ42 and Aβ38
Secreted Aβ42 [12]: reduced only Aβ42
Secreted Aβ43 [12]: had no effect on Aβ43
Aβ40 (gel) [13]: little effect on Aβ40

COc1nc(-c2cc(C)c(N[C@@H](C)c3ccc(F)cc3)nn2)ccc1-n1cnc(C)c1 [BPN-15606, reference compound]
Aβ40 (gel) [5]: strong reduction of Aβ40
IC50 [1]: 16.9 ± 8.22 nM
Secreted Aβ42 ([14]; 24 h, BPN-15606 360 nM): reduced Aβ42 levels
Secreted Aβ38 ([14]; 24 h, BPN-15606 360 nM): increase of Aβ38
Aβ43 (gel) ([7]; BPN-15606 500 nM): strong reduction of Aβ43
IC50 ([9]; IC50 (Aβ42), 16–18 h, MSD sandwich immunoassay, this study): ~12 nM and 12 nM
Aβ40 (gel) [13]: strong reduction of Aβ40
Short species Aβ37 and Aβ38 (gel) [13]: increase of both short species, Aβ37 and Aβ38

CC(C)CCC(c1ccc(Cl)cc1)N1CCC(CC(=O)O)CC1c1ccc(C(F)(F)F)cc1 (stereo not drawn) [GSM-1, reference compound]
Competition of RO6874585 crosslinking to presenilin [3]: did not or only weakly compete binding
Aβ38 level in treated cells, % of total Aβ [8]: 30–60%

CC(C)N1CCC(Oc2ccc3[nH]c(C(=O)Nc4ccc(F)c(F)c4)cc3c2)C1 (stereo not drawn) [RO5218863]
IC50 [1, 18]: 229 ± 69.8 nM
Competition of RO6874585 crosslinking to presenilin [3]: competed with presenilin binding

CC(C)N1CCCC(c2ccc3[nH]c(C(=O)Nc4cccc(F)c4)cc3c2)C1 (stereo not drawn) [RO5218165]
IC50 [1, 18]: 207 ± 32.4 nM
Competition of RO6874585 crosslinking to presenilin [3]: differential competition for NTF and CTF binding

COc1cc(Nc2nc(Cc3ccc(Cl)cc3)cc(C(C)(C)O)n2)ccc1-n1cnc(C)c1 [RO-02, reference compound]
Aβ40 (gel) [5]: strong reduction of Aβ40
Short species Aβ37 and Aβ38 (gel) ([5]; heterozygous KI MEF): increase of both short species, Aβ37 and Aβ38
IC50 [1]: 20.5 ± 4.38 nM
Competition of RO6874585 crosslinking to presenilin [3]: did not or only weakly compete binding
Aβ38 level in treated cells, % of total Aβ ([14]; GSM-1 2.5 µM, RO-02 500 nM, one range given for both compounds and both 'other genotypes'): 30–60%
Aβ38 level in treated cells, % of total Aβ [15]: 6–8%
Aβ38 level in treated cells, % of total Aβ [8]: 30–60%
IC50 [16]: ~15 nM and 15 nM
Aβ40 (gel) [13]: strong reduction of Aβ40
Short species Aβ37 and Aβ38 (gel) [13]: increase of both short species, Aβ37 and Aβ38

Cc1nsc(N2CC3CCC(C2)C3Nc2nc3c(-c4ccc(F)c(F)c4F)cccn3n2)n1 (stereo not drawn) [RO7019009]
Aβ40 (gel) [5]: strong reduction of Aβ40
Processivity: ratio of shorter Aβ37/38 combined with Aβ40 to longer Aβ42/43 species ([5]; heterozygous KI MEF, RO7019009 500 nM): increased processivity
Short species Aβ37 and Aβ38 (gel) ([5]; heterozygous KI MEF): increase of both short species, Aβ37 and Aβ38
Effect on Aβ species profile ([6]; RO7019009 500 nM or 2.5 µM): efficiently reduced not only Aβ40 but also Aβ43 and, especially at higher concentrations, Aβ42
IC50 [17]: ≥ 2 nM
IC50 [1]: 3.76 ± 0.6 nM
Competition of RO6874585 crosslinking to presenilin [3]: differential competition for NTF and CTF binding
Secreted Aβ38 ([14]; 24 h, BPN-15606 360 nM): strongly increased Aβ38
Aβ38 (gel) ([7]; RO7019009 500 nM): increased generation of Aβ38
Processivity: ratio of shorter Aβ37/38 combined with Aβ40 to longer Aβ42/43 species ([7]; RO7019009 500 nM): increased processivity
Combined pathogenic species (Aβ42 + Aβ43) [8]: effective lowering of the generation of total pathogenic Aβ42/43 species
Secreted Aβ43 [8]: only potently effective compound in lowering Aβ43
IC50 [16]: ~14 nM and 14 nM
Total Aβ levels [10]: without affecting total Aβ levels
Effect on Aβ species profile [11]: reduced Aβ40 and Aβ42 while increasing both shorter species Aβ37 and Aβ38
Secreted Aβ42 [12]: reduced both Aβ42 and Aβ43
Secreted Aβ43 [12]: reduced both Aβ42 and Aβ43
Aβ40 (gel) [13]: strong reduction of Aβ40
Short species Aβ37 and Aβ38 (gel) [13]: increase of both short species, Aβ37 and Aβ38
